Source: PubChem BioAssay (NCI)
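Growth conditions: 96-well plates. Treatment: test compound, 48 hours, 5 concentrations. Analysis: linear interpolation between bracketing concentrations; unreached endpoints set to highest concentration. GI50 is the concentration that inhibits growth by half. TGI denotes the concentration required for complete inhibition of growth.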

What was measured:
Assay in all cases: growth of human tumour cells (NCI), 48 h
K-562 leukemia = system: K-562 leukemia
T-47D breast = system: T-47D breast
M14 melanoma = system: M14 melanoma
RXF 393 renal = system: RXF 393 renal
SK-MEL-5 melanoma = system: SK-MEL-5 melanoma
SF-539 CNS = system: SF-539 CNS
CCRF-CEM leukemia = system: CCRF-CEM leukemia
EKVX NSCLC = system: EKVX NSCLC
NCI-H522 lung = system: NCI-H522 lung
HCT-116 colon = system: HCT-116 colon
SR leukemia = system: SR leukemia
HS 578T breast = system: HS 578T breast
OVCAR-8 ovarian = system: OVCAR-8 ovarian
HL-60(TB) leukemia = system: HL-60(TB) leukemia
CAKI-1 renal = system: CAKI-1 renal
SW-620 colon = system: SW-620 colon
NCI-H460 lung = system: NCI-H460 lung
NCI-H226 lung = system: NCI-H226 lung
ACHN renal = system: ACHN renal
OVCAR-4 ovarian = system: OVCAR-4 ovarian
A549 NSCLC = system: A549 NSCLC
SK-MEL-2 melanoma = system: SK-MEL-2 melanoma
SNB-19 CNS = system: SNB-19 CNS
UACC-62 melanoma = system: UACC-62 melanoma
BT-549 breast = system: BT-549 breast
UACC-257 melanoma = system: UACC-257 melanoma
HCT-15 colon = system: HCT-15 colon
KM12 colon = system: KM12 colon
SNB-75 CNS = system: SNB-75 CNS
SK-OV-3 ovarian = system: SK-OV-3 ovarian
SN12C renal = system: SN12C renal
HOP-62 NSCLC = system: HOP-62 NSCLC
A498 renal = system: A498 renal
SK-MEL-28 melanoma = system: SK-MEL-28 melanoma
PC-3 prostate = system: PC-3 prostate
DU-145 prostate = system: DU-145 prostate
OVCAR-3 ovarian = system: OVCAR-3 ovarian
TK-10 renal = system: TK-10 renal
OVCAR-5 ovarian = system: OVCAR-5 ovarian
MCF7 breast = system: MCF7 breast
MOLT-4 leukemia = system: MOLT-4 leukemia
UO-31 renal = system: UO-31 renal
COLO 205 colon = system: COLO 205 colon
HOP-92 NSCLC = system: HOP-92 NSCLC
786-0 renal = system: 786-0 renal
SF-268 CNS = system: SF-268 CNS
U251 CNS = system: U251 CNS
HCC-2998 colon = system: HCC-2998 colon
RPMI-8226 leukemia = system: RPMI-8226 leukemia
SF-295 CNS = system: SF-295 CNS
MDA-MB-435 = system: MDA-MB-435
NCI-H23 lung = system: NCI-H23 lung
NCI/ADR-RES ovarian = system: NCI/ADR-RES ovarian

`CC1(C)CC[C@]23CC[C@]4(C)[C@H](CC[C@@H]5[C@@]6(C)CC[C@H](N)C(C)(C)[C@@H]6CC[C@]54C)[C@H]2[C@H]1OC3` was tested, and the GI50 (K-562 leukemia) was 2.08 µM, the TGI (K-562 leukemia) was 5.94 µM and the GI50 (T-47D breast) was 3.75 µM. It also gave a TGI (T-47D breast) of 19.3 µM, a GI50 (M14 melanoma) of 1.92 µM and a TGI (M14 melanoma) of 3.88 µM. For the same compound, the GI50 (RXF 393 renal) was 1.58 µM, the TGI (RXF 393 renal) was 2.94 µM and the GI50 (SK-MEL-5 melanoma) was 1.74 µM. It also gave a TGI (SK-MEL-5 melanoma) of 3.2 µM, a GI50 (SF-539 CNS) of 1.74 µM and a TGI (SF-539 CNS) of 3.22 µM. For the same compound, the GI50 (CCRF-CEM leukemia) was 2.11 µM, the TGI (CCRF-CEM leukemia) was 36.3 µM and the GI50 (EKVX NSCLC) was 1.83 µM. The TGI (EKVX NSCLC) was 3.84 µM, the GI50 (NCI-H522 lung) was 2.98 µM and the TGI (NCI-H522 lung) was 9.75 µM. For the same compound, the GI50 (HCT-116 colon) was 1.74 µM, the TGI (HCT-116 colon) was 3.2 µM and the GI50 (SR leukemia) was 0.663 µM. It also gave a TGI (SR leukemia) of 4.56 µM, a GI50 (HS 578T breast) of 2.58 µM and a TGI (HS 578T breast) of 6.9 µM. It also gave a GI50 (OVCAR-8 ovarian) of 2.57 µM, a TGI (OVCAR-8 ovarian) of 6.84 µM and a GI50 (HL-60(TB) leukemia) of 1.67 µM. It also gave a TGI (HL-60(TB) leukemia) of 3.78 µM, a GI50 (CAKI-1 renal) of 1.69 µM and a TGI (CAKI-1 renal) of 3.19 µM. For the same compound, the GI50 (SW-620 colon) was 2 µM, the TGI (SW-620 colon) was 4.1 µM and the GI50 (NCI-H460 lung) was 1.85 µM. For the same compound, the TGI (NCI-H460 lung) was 3.6 µM, the GI50 (NCI-H226 lung) was 5.22 µM and the TGI (NCI-H226 lung) was 31.1 µM. It also gave a GI50 (ACHN renal) of 1.82 µM, a TGI (ACHN renal) of 3.26 µM and a GI50 (OVCAR-4 ovarian) of 2.75 µM. The TGI (OVCAR-4 ovarian) was 7.48 µM, the GI50 (A549 NSCLC) was 1.98 µM and the TGI (A549 NSCLC) was 4.36 µM. It also gave a GI50 (SK-MEL-2 melanoma) of 2.98 µM, a TGI (SK-MEL-2 melanoma) of 10.1 µM and a GI50 (SNB-19 CNS) of 1.9 µM. For the same compound, the TGI (SNB-19 CNS) was 3.72 µM, the GI50 (UACC-62 melanoma) was 1.85 µM and the TGI (UACC-62 melanoma) was 3.9 µM. It also gave a GI50 (BT-549 breast) of 15.4 µM, a TGI (BT-549 breast) of 29 µM and a GI50 (UACC-257 melanoma) of 15.3 µM. It also gave a TGI (UACC-257 melanoma) of 35.6 µM, a GI50 (HCT-15 colon) of 1.62 µM and a TGI (HCT-15 colon) of 3.15 µM. For the same compound, the GI50 (KM12 colon) was 1.92 µM, the TGI (KM12 colon) was 3.65 µM and the GI50 (SNB-75 CNS) was 17 µM. It also gave a TGI (SNB-75 CNS) of 38.9 µM, a GI50 (SK-OV-3 ovarian) of 14.1 µM and a TGI (SK-OV-3 ovarian) of 28.7 µM. It also gave a GI50 (SN12C renal) of 1.79 µM, a TGI (SN12C renal) of 3.57 µM and a GI50 (HOP-62 NSCLC) of 1.88 µM. For the same compound, the TGI (HOP-62 NSCLC) was 3.78 µM, the GI50 (A498 renal) was 11.7 µM and the TGI (A498 renal) was 27.1 µM. It also gave a GI50 (SK-MEL-28 melanoma) of 1.83 µM, a TGI (SK-MEL-28 melanoma) of 3.93 µM and a GI50 (PC-3 prostate) of 2.34 µM. For the same compound, the TGI (PC-3 prostate) was 6.14 µM, the GI50 (DU-145 prostate) was 1.89 µM and the TGI (DU-145 prostate) was 3.67 µM. The GI50 (OVCAR-3 ovarian) was 1.83 µM, the TGI (OVCAR-3 ovarian) was 3.48 µM and the GI50 (TK-10 renal) was 15.7 µM. For the same compound, the TGI (TK-10 renal) was 31.1 µM, the GI50 (OVCAR-5 ovarian) was 1.87 µM and the TGI (OVCAR-5 ovarian) was 3.95 µM. The GI50 (MCF7 breast) was 1.62 µM, the TGI (MCF7 breast) was 3.32 µM and the GI50 (MOLT-4 leukemia) was 2.17 µM. It also gave a TGI (MOLT-4 leukemia) of 7.3 µM, a GI50 (UO-31 renal) of 1.5 µM and a TGI (UO-31 renal) of 2.97 µM. It also gave a GI50 (COLO 205 colon) of 1.91 µM, a TGI (COLO 205 colon) of 3.62 µM and a GI50 (HOP-92 NSCLC) of 2.5 µM. The TGI (HOP-92 NSCLC) was 6.59 µM, the GI50 (786-0 renal) was 1.66 µM and the TGI (786-0 renal) was 3.26 µM. It also gave a GI50 (SF-268 CNS) of 5.98 µM, a TGI (SF-268 CNS) of 23.5 µM and a GI50 (U251 CNS) of 1.79 µM. It also gave a TGI (U251 CNS) of 3.66 µM, a GI50 (HCC-2998 colon) of 1.76 µM and a TGI (HCC-2998 colon) of 3.33 µM. For the same compound, the GI50 (RPMI-8226 leukemia) was 2.73 µM, the TGI (RPMI-8226 leukemia) was 7.21 µM and the GI50 (SF-295 CNS) was 1.75 µM. The TGI (SF-295 CNS) was 3.27 µM, the GI50 (MDA-MB-435) was 1.91 µM and the TGI (MDA-MB-435) was 3.73 µM.

`CNC(=O)c1c(NC(=O)c2ccc(F)cc2F)sc2c1CCC(=O)C2` was tested, and the GI50 (K-562 leukemia) was 0.133 µM, the TGI (K-562 leukemia) was > 100 µM and the GI50 (RXF 393 renal) was 0.182 µM. The TGI (RXF 393 renal) was 1.73 µM, the GI50 (NCI-H23 lung) was 0.251 µM and the TGI (NCI-H23 lung) was > 100 µM. For the same compound, the GI50 (CCRF-CEM leukemia) was 0.146 µM, the TGI (CCRF-CEM leukemia) was > 100 µM and the GI50 (EKVX NSCLC) was 0.253 µM. The TGI (EKVX NSCLC) was > 100 µM, the GI50 (SR leukemia) was 0.089 µM and the TGI (SR leukemia) was > 100 µM. The GI50 (HS 578T breast) was 0.439 µM, the TGI (HS 578T breast) was 5.91 µM and the GI50 (OVCAR-8 ovarian) was 0.288 µM. For the same compound, the TGI (OVCAR-8 ovarian) was > 100 µM, the GI50 (CAKI-1 renal) was 0.236 µM and the TGI (CAKI-1 renal) was 1.04 µM. It also gave a GI50 (ACHN renal) of 0.349 µM, a TGI (ACHN renal) of 1.08 µM and a GI50 (SNB-19 CNS) of 0.44 µM. The TGI (SNB-19 CNS) was > 52.4 µM, the GI50 (NCI/ADR-RES ovarian) was 0.265 µM and the TGI (NCI/ADR-RES ovarian) was > 100 µM. The GI50 (BT-549 breast) was 0.345 µM, the TGI (BT-549 breast) was 2.86 µM and the GI50 (SNB-75 CNS) was 0.722 µM. For the same compound, the TGI (SNB-75 CNS) was 3.3 µM, the GI50 (SK-OV-3 ovarian) was 2.59 µM and the TGI (SK-OV-3 ovarian) was 9.62 µM. For the same compound, the GI50 (HOP-62 NSCLC) was 1.13 µM, the TGI (HOP-62 NSCLC) was > 100 µM and the GI50 (TK-10 renal) was 0.431 µM. For the same compound, the TGI (TK-10 renal) was 17.7 µM, the GI50 (MOLT-4 leukemia) was 0.23 µM and the TGI (MOLT-4 leukemia) was > 100 µM. For the same compound, the GI50 (786-0 renal) was 0.39 µM, the TGI (786-0 renal) was 13.6 µM and the GI50 (SF-268 CNS) was 0.428 µM. For the same compound, the TGI (SF-268 CNS) was > 100 µM, the GI50 (U251 CNS) was 0.288 µM and the TGI (U251 CNS) was > 100 µM. For the same compound, the GI50 (RPMI-8226 leukemia) was 0.227 µM, the TGI (RPMI-8226 leukemia) was > 100 µM and the GI50 (SF-295 CNS) was 1.31 µM. It also gave a TGI (SF-295 CNS) of 5.71 µM.
